Data reported in patent US8906925B2, “Pyrido[4,3-B]indoles containing rigid moieties” (Medivation Technologies, Inc., priority 2008, dated 2014).
Read-outs that look alike come from different tables or passages of the source.

What was measured:
[1] = target: T1, human recombinant histamine H2 receptor (Homo sapiens, UniProt P25021); test: Histamine H2 radioligand binding ([125I]Aminopotentidine); details: read-out: Histamine Binding (1 μM) H2, percent inhibition of specific binding, 1 μM
T1 construct: expressed in transfected cells; host or cells: Chinese hamster ovary (CHO) K1 cells
T1 sequence (P25021 whole entry): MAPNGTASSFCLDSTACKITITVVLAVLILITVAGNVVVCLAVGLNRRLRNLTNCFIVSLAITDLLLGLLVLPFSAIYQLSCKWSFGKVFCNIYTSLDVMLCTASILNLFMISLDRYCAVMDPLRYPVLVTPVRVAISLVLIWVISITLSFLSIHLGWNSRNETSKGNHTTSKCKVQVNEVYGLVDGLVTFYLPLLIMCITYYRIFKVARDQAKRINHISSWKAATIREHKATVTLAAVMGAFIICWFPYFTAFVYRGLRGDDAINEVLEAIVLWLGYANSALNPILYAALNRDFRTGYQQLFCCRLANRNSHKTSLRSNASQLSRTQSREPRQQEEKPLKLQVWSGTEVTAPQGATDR
Method in brief: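 Receptor source: human recombinant H2 in CHO-K1 cells, assayed in 50 mM phosphate pH 7.4. Competition against 0.1 nM [125I]aminopotentidine, 120 min, 25 °C; 3 μM tiotidine sets nonspecific binding, filter-bound counts give specific binding.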

[2] = target: T2, human recombinant serotonin (5-Hydroxytryptamine) 5-HT6 receptor (Homo sapiens, UniProt P50406); test: Serotonin 5-HT6 radioligand binding ([3H]LSD); details: compound at 1 μM; read-out: Inhibition of ligand binding, Serotonin 5-HT6 (percent inhibition of specific binding)
T2 construct: expressed in transfected cells; host or cells: human HeLa cells
T2 sequence (P50406 whole entry): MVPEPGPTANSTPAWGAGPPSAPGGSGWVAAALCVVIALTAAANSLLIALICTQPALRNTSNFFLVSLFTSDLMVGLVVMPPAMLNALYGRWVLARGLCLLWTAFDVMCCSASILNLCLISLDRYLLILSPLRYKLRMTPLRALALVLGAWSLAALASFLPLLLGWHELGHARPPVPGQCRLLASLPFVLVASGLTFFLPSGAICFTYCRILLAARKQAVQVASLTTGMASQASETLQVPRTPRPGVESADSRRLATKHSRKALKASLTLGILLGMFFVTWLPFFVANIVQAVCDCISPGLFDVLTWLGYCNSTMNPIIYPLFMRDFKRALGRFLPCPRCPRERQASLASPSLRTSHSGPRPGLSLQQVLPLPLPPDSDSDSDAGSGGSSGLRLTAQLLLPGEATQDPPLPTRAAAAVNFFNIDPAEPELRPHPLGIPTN
Protocol: Compounds of the invention were incubated with 1.5 nM [3H]Lysergic acid diethylamide (LSD) for 120 min. at 37° C. […] Receptor proteins were filtered and washed, the filters were then counted to determine [3H]LSD specifically bound. Compounds were screened at 1 μM or lower, using 1% DMSO as vehicle. Biochemical assay results are presented as the percent inhibition of specific binding in Table 10.

[3] = target: T3, human recombinant adrenergic α2A receptor (Homo sapiens, UniProt P08913); test: Adrenergic α2A radioligand binding ([3H]MK-912); details: compound at 1 μM
T3 construct: expressed in transfected cells; host or cells: insect Sf9 cells
T3 sequence (P08913 1-465): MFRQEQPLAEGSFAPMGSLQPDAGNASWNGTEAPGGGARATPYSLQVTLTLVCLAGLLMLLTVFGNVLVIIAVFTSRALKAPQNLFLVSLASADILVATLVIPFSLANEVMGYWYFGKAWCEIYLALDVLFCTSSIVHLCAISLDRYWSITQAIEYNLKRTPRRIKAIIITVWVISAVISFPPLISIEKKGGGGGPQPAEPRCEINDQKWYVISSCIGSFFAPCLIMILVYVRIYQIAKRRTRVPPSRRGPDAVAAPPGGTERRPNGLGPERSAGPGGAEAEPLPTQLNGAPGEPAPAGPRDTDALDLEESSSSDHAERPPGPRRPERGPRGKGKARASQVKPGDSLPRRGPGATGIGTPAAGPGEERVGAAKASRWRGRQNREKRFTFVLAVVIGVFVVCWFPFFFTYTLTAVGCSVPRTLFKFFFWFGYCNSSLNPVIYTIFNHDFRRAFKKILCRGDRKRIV
Method in brief: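 Sf9-expressed human receptor in 50 mM Tris-HCl pH 7.4, 12.5 mM MgCl2, 2 mM EDTA; compounds at 1 μM or lower (1% DMSO) incubated with 1 nM [3H]MK-912 for 60 min at 25° C. Non-specific binding defined with 10 μM WB-4101; filtered bound radioactivity counted, reported as percent inhibition of specific binding.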

[4] = target: T4, human recombinant adrenergic α1D receptor (Homo sapiens, UniProt P25100); test: Adrenergic α1D radioligand binding ([3H]Prozosin); details: compound at 1 μM
T4 construct: expressed in transfected cells; host or cells: human embryonic kidney (HEK-293) cells
T4 sequence (P25100 1-572): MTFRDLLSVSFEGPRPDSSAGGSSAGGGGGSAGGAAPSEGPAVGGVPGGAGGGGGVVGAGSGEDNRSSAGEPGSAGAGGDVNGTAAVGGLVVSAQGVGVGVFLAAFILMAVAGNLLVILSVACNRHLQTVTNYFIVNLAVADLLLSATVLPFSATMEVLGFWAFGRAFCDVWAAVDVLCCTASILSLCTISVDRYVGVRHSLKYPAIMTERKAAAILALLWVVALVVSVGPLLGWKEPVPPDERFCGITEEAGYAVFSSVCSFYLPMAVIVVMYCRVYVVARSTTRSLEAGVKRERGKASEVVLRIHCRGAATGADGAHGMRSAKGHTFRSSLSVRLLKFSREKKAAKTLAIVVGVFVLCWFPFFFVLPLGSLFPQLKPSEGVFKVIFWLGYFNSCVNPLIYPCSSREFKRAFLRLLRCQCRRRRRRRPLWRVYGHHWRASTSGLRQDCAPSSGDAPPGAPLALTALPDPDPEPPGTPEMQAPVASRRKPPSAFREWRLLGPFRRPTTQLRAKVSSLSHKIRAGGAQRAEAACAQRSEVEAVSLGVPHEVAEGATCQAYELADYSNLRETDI
Protocol: Compounds of invention were incubated with 0.6 nM [^3H]Prozosin for 60 min. at 25° C. Non-specific binding was estimated in the presence of 10 μM phentolamine. Receptor proteins were filtered and washed, the filters were then counted to determine [^3H]Prozosin specifically bound. Compounds were screened at 1 μM or lower, using 1% DMSO as vehicle. Biochemical assay results are presented as the percent inhibition of specific binding in Table 9.

[5] = target: human recombinant serotonin (5-Hydroxytryptamine) 5-HT7 receptor (Homo sapiens, UniProt P34969); test: Serotonin 5-HT7 radioligand binding ([3H]LSD); details: compound at 1 μM; read-out: Inhibition of ligand binding, Serotonin 5-HT7 (percent inhibition of specific binding)
Chain of human recombinant serotonin (5-Hydroxytryptamine) 5-HT7 receptor (P34969 whole entry): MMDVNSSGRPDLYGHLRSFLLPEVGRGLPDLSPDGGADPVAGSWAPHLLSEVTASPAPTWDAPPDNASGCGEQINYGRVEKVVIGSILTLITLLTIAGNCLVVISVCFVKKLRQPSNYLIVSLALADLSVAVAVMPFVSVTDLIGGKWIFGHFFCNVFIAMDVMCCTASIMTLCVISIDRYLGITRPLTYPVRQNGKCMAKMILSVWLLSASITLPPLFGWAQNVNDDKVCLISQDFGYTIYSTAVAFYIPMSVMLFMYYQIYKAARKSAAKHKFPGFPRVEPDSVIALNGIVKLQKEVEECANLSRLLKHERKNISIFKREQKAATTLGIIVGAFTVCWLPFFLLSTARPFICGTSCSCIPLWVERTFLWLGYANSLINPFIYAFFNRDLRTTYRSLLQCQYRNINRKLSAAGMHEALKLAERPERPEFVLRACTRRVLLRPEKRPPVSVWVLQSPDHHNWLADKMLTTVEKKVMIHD
From the text: Receptor proteins were filtered and washed, the filters were then counted to determine [^3H]LSD specifically bound.

[6] = target: T5, human recombinant serotonin (5-Hydroxytryptamine) 5-HT2A receptor (Homo sapiens, UniProt P28223); test: Serotonin 5-HT2A radioligand binding ([3H]Ketanserin); details: read-out: Inhibition of ligand binding, Serotonin 5-HT2A (percent inhibition of specific binding), compound at 1 μM
T5 construct: expressed in transfected cells; host or cells: Chinese hamster ovary (CHO-K1) cells
T5 sequence (P28223 whole entry): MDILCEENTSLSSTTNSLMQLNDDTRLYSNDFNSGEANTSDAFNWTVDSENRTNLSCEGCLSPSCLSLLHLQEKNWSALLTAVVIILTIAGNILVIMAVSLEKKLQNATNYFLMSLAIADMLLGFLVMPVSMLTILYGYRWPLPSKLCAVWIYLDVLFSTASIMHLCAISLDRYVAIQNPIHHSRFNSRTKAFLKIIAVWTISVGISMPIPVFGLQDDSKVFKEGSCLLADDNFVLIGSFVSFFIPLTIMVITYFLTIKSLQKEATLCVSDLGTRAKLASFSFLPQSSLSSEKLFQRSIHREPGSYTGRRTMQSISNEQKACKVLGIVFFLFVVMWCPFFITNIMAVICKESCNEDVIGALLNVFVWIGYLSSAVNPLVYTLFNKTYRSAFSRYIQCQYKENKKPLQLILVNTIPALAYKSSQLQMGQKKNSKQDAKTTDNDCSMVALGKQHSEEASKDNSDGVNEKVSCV
Protocol: Compounds of the invention were incubated with 0.5 nM [^3H]Ketanserin for 60 min. at 25° C. Non-specific binding was estimated in the presence of 1 μM Mianserin. Receptor proteins were filtered and washed, the filters were then counted to determine [^3H]Ketanserin specifically bound.

[7] = read-out: Inhibition of ligand binding, Adrenergic α2A (percent inhibition of specific binding)
[8] = read-out: Inhibition of ligand binding, Adrenergic α1D (percent inhibition of specific binding)

Row | SMILES | inhibition at 1 µM [1] [%] | inhibition at 1 µM [2] [%] | inhibition at 1 µM [3, 7] [%] | inhibition at 1 µM [4, 8] [%] | inhibition at 1 µM [5] [%] | inhibition at 1 µM [6] [%] | inhibition at 1 µM ([3]; percent inhibition of specific binding, read-out: Inhibition of ligand binding, Adrenergic α2A) [%] | inhibition at 1 µM ([4]; percent inhibition of specific binding, read-out: Inhibition of ligand binding, Adrenergic α1D) [%]
1 | CN1CCc2c(c3cc(C(=O)O)ccc3n2C#Cc2ccc(F)cc2)C1 [Compound No. 482, 5-((4-fluorophenyl)ethynyl)-2-methyl-2,3,4,5-tetrahydro-1H-pyrido[4,3-b]indole-8-carboxylic acid] | -3 | 4 | 8 | 21 | 22 | -8 | – | –
2 | CNC(=O)c1ccc2c(c1)c1c(n2C#Cc2ccc(F)cc2)CCN(C)C1 [Compound No. 483, 5-((4-fluorophenyl)ethynyl)-N,2-dimethyl-2,3,4,5-tetrahydro-1H-pyrido[4,3-b]indole-8-carboxamide] | 10 | 53 | 77 | 59 | 16 | 34 | – | –
3 | Cc1ccc2c(c1)c1c(n2CC#Cc2ccccn2)CCN(C)C1 [Compound No. 500, 2,3,4,5-tetrahydro-2,8-dimethyl-5-(3-(pyridin-2-yl)prop-2-ynyl)-1H-pyrido[4,3-b]indole] | 30 | 18 | 72 | 11 | 48 | 40 | – | –
4 | C/C(=C\n1c2c(c3cc(Cl)ccc31)CN(C)CC2)c1ccccc1 [compound 106, (E)-8-chloro-2,3,4,5-tetrahydro-2-methyl-5-(2-phenylprop-1-enyl)-1H-pyrido[4,3-b]indole] | 99 | 104 | – | – | 98 | 98 | 93 | 92
